Earlier results as cited in patent publication US8324203B2, “Azadecalin glucocorticoid receptor modulators” (Corcept Therapeutics, Inc., priority 2004, dated 2012).

Experiments:
[1] = test system: patients with Cushing's syndrome
GR = GR (Homo sapiens, UniProt P04150)
Sequence of GR (P04150 whole entry): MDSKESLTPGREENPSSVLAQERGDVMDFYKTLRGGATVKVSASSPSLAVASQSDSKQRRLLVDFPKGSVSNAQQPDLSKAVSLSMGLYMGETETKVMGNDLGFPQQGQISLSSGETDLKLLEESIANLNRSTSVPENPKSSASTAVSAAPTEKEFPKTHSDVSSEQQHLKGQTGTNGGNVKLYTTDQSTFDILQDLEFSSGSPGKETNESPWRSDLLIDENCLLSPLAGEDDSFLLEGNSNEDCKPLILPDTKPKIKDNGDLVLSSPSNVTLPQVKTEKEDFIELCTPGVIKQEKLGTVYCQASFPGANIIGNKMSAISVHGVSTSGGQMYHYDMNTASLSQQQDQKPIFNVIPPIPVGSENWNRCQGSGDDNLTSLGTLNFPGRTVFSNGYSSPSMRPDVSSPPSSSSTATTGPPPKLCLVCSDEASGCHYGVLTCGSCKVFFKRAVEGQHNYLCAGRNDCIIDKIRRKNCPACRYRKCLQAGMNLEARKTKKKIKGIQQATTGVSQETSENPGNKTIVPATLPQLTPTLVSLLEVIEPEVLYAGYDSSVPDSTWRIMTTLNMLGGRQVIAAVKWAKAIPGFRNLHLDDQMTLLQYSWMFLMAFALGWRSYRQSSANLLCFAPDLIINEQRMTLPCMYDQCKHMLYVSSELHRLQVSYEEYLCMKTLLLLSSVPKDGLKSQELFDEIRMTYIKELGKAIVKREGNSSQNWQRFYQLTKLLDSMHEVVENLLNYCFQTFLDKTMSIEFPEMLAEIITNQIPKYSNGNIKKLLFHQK

CC#C[C@]1(O)CC[C@H]2[C@@H]3CCC4=CC(=O)CCC4=C3[C@@H](c3ccc(N(C)C)cc3)C[C@@]21C [mifepristone]
effect on acute psychosis ([1]; 400 to 800 mg per day, severe Cushing Syndrome due to adrenal cancers and ectopic secretion of ACTH from lung cancer): useful in rapidly reversing acute psychosis
effect on patients' conditions, including psychiatric status ([1]; Cushing's syndrome patients): improved the patients' conditions
anti-glucocorticoid activity in humans (GR): effective anti-glucocorticoid agent in humans
